Data set [1] has as its system carrageenin-induced hind paw edema. The data set can be described thus: Inhibitory effect on carrageenin-induced hind paw edema in rats. The format is in vivo, rats of Wistar strain. The conditions noted are these: male Wistar rats, 8 per group, oral; reference drugs at LD₅₀ amount, compound of this invention equimolar to diclofenac sodium salt; compared with Control group (P<0.01); no significant difference between the test compounds. An excerpt: (a) Inhibitory effect on carrageenin-induced hind paw edema in rats:
40 Male rats of Wistar strain weighing 100-130 g were divided into the following 5 groups each consisting of 8 rats: 1. Control group, 2. Group for the administration of the compound of this invention, 3. Group for the administration of diclofenac Na, 4. Group for the administration of flurubiprofen and 5. Group for the administration of indomethacin. Prior to the administration of the test compounds, plantar injections 1% carrageenin solution were made to each rat to induce hind paw edema. To each rat of the Groups 3, 4 and 5, the LD₅₀ amount of the relevant test compound was orally administered in molar amounts. The compound of the present invention was administered in an equimolar amount to the diclofenac sodium salt.

The test system of data set [2] is female mice of ICR strain. The data set can be described thus: Analgesic and anti-capillary permeability effects according to Wittle's method (acetic acid stretching, PSB exudation). The settings on record: oral 25 mg/kg, 1% acetic acid i.p., compared with control Group 3 (P<0.01), no significant difference between Groups 1 and 2; for inhibitory activities of the stretching: stretchings counted for 20 minutes; for inhibitory activities of the exudation of the colorant from the peritoneal cavity: 4% Pontamine Sky Blue i.v. The format is in vivo. The text has this:
(b) Analgesic and anti-capillary permeability effects according to Wittle's method:
Three groups of female mice of ICR strain weighing 22-28 g were used, each group consisting of 10 mice; one group (Group 1) was used for the administration of the compound of this invention, another group (Group 2) for the administration of diclofenac sodium salt and the other group (Group 3) as control. […] Immediately after the intraperitoneal injection, the number of stretchings of the treated mice were counted and recorded for 20 minutes. After this observation, the mice were immediately sacrificed by dislocation of cervical vertebrae and subjected to ventrotomy. The peritoneal cavity of each mouse was washed with 5 ml of distilled water to exudate PSB in the peritoneal cavity, and the amount of the colorant exudated was measured.

Data set [3] in a line: in vivo. The settings on record: mouse, in vivo, po, LD₅₀, oral administration, Litchfield-Wilcoxon's method, dead mice during one week. The method, then: (§1) (a) Acute oral toxicity in mice:
(§2) Groups of male and female mice of ICR strain weighing 25-35 g were used for the test, each group consisting of 6 mice. […] LD₅₀ values of the compound of this invention were calculated for each concentration according to the Litchfield-Wilcoxon's method from the number of dead mice during one week.

For data set [4], the system named is mice of ICR strain. Kind of data set: in vivo. The conditions noted are these: oral, male and female mice. The method, then:
as §1, §2

The test system of data set [5] is male rats of Wistar strain. The format is in vivo. The method, then:
(b) Gastric ulcerogenic action:
Three groups of male rats of Wistar strain weighing 300-340 g were used, each group consisting of 7 rats; one group (Group 1) was used for control, another group (Group 2) for the administration of the compound of this invention and the other group (Group 3) for the administration of diclofenac sodium salt. After 24 hour fasting prior to the test, the compound of this invention and the diclofenac sodium salt were orally administered each in a dose of 20 mg/kg to the rats of the relevant groups. Six hours after the administration, the rats were sacrificed by decaptation and their stomachs were immediately removed. A 5% formaline solution (10 ml) was injected through the cardia into the stomach cavity and the stomach was fixed overnight in a 10% formaline solution. Each fixed stomach was cut along the greater curvature, and the inside of the stomach was investigated by the naked eye to check whether ulcers and erosions occurred or not. An ulcerogenic and erosion index was 0.71±0.42 in Group 1, 1.13±0.40 in Group 2 and 17.57±4.28 in Group 3. The number of rats having ulcers or erosions was 3/7 (42.9%) in Group 1, 4/7 (57.1%) in Group 2 and 7/7 (100%) in Group 3.

Data set [6] in a line: Solubility (description of the substance). In kind it is physicochemical. The conditions noted are these: organic solvents.

Each structure is given as a SMILES string. Where a name gives a salt, the structure may show the parent alone. Read-outs that look alike come from different tables or passages of the source.

As to `Cc1oc(=O)oc1COC(=O)Cc1ccccc1Nc1c(Cl)cccc1Cl` [compound of this invention, (5-methyl-2-oxo-1,3-dioxolen-4-yl)methyl 2-(2,6-dichloroanilino)phenylacetate], the “swelling of the edema” value in data set [1] is recorded as “significantly inhibited”. For the same compound, in data set [2], the “inhibitory activities of the stretching” value is given as “significant difference” and the “inhibitory activities of the exudation of the colorant from the peritoneal cavity” value was “significant difference”. For the same compound, the LD50 at 168 h in data set [3] (female mice) was 516 mg/kg. Also, the LD50 at 168 h in data set [3] (male mice) turned out to be 460 mg/kg. The “LD₅₀ values relative to those of diclofenac sodium salt” value in data set [4] is “approximately 3 times”. Moreover, in data set [5] (rat, in vivo, po, 20 mg/kg), the “number of rats having ulcers or erosions” value is recorded as 4/7 (57.1%); the “ulcerogenic and erosion index” value was found to be 1.13±0.40. Also, the solubility result in data set [6] is listed as “soluble in organic solvents such as alcohols”.
For the compound `O=C(O)Cc1ccccc1Nc1c(Cl)cccc1Cl` [diclofenac sodium salt, reference compound], the “swelling of the edema” value in data set [1] is on record as “significantly inhibited”. Besides, in data set [2], the “inhibitory activities of the stretching” value is reported as “significant difference” and the “inhibitory activities of the exudation of the colorant from the peritoneal cavity” value is “significant difference”. Moreover, the “ulcerogenic and erosion index” value in data set [5] (male Wistar rats, 7 per group, 24 hour fasting, oral 20 mg/kg, six hours after administration) amounted to 17.57±4.28.
For the compound `CC(C(=O)O)c1ccc(-c2ccccc2)c(F)c1` (stereo not drawn) [flurubiprofen], in data set [1], the “swelling of the edema” value is given as “significantly inhibited”.
With `COc1ccc2c(c1)c(CC(=O)O)c(C)n2C(=O)c1ccc(Cl)cc1` [indomethacin], the “swelling of the edema” value in data set [1] is “significantly inhibited”.

Source of the values: EP0326637A1, “New 2-anilinophenylacetic acid derivative” (Mikasa Seiyaku Co., Ltd., priority 1988, dated 1989).
